Measured values taken from patent US12618070B2, “Increasing Atoh1 life to drive sensorineural hair cell differentiation” (Massachusetts Eye and Ear Infirmary, priority 2014, dated 2026).
Entries after “also recorded” stand apart in the source; their conditions may differ. Peptide text beside a SMILES is read from it. * marks the point of attachment. Cbz = O=C(OCc1ccccc1)*

Experiments:
Type in all cases: cell-based
Atoh1 [1] = assay: Atoh1 level in P1 organ of Corti explants treated with proteasome inhibitor; details: P1 mouse organ of Corti, MG132 10 uM, 3 hours, vs DMSO
Experimental: FIG. 10. Inhibition of proteasome activity stabilizes Atoh1 in the cochlea. The organ of Corti from a P1 mouse was treated with proteasome inhibitor, MG132 (10 uM) for 3 hours. Atoh1 levels were higher in the MG132-treated organ of Corti. DMSO served as control; β-actin is a loading control.
Cochlear tissues were dissected from 1-day postnatal CD-1 mice (Charles River Laboratories). Spiral ganglion, Reissner's membrane, and the hook region of the organ of Corti were removed to obtain a flat cochlear surface preparation (Parker et al., 2010). Explants were plated onto 4-well plates (Greiner Bio-One) coated with Matrigel (BD Biosciences) diluted 1:10 in DMEM supplemented with 10% fetal bovine serum overnight.
To test whether proteasomal activity regulated Atoh1 in the cochlea we treated P1 organ of Corti explants with proteasome inhibitor, MG132 (10 uM).

Atoh1 [2] = assay: Polyubiquitylation of Atoh1: anti-FLAG immunoprecipitation, ubiquitin immunoblot; details: MG132 10 uM, 6 hours
Experimental: (§1) FIGS. 2A-E. Atoh1 is degraded by the ubiquitin-proteasome pathway. […] HEK cells were transfected with FLAG-Atoh1 plasmid (1 ug/ml) for 24 hours, and incubated with either DMSO or MG132 (10 uM) for 3 hours and immunoprecipitated using FLAG (Atoh1) or beta-actin (loading control) antibodies. (B) FLAG-HA-Atoh1 293T cells were treated with cycloheximide (100 ug/ml) and MG132 (10 uM) at the indicated times and immunoprecipitated with FLAG (Atoh1) or beta-actin (loading control) antibodies. Time of treatment is indicated. (C) Half-lives based on densitometry from 3 experiments are shown. The ratio of Atoh1 to β-actin was plotted after normalization. Error bars indicate SEM. (D) & (E). Atoh1 is polyubiquitylated and degraded by the ubiquitin-proteasome pathway. FLAG-HA-Atoh1 293T cells were treated with either DMSO or MG132 (10 uM) for 6 hours. Lysates were immunoprecipitated with anti-FLAG antibody and subjected to immunoblotting with a ubiquitin antibody. FLAG was used to assess immunoprecipitation. […]
We then assessed polyubiquitylation of Atoh1 in the presence of a proteasome inhibitor which would prevent degradation of the ubiquitinated protein. […] The cell lysates were immunoprecipitated with anti-FLAG antibody, and the pattern of ubiquitylation was assessed with an anti-ubiquitin antibody.

Atoh1 [3] = assay: Atoh1 level after proteasome inhibition in HEK cells transfected with FLAG-Atoh1; details: MG132 10 uM, 3 hours, vs DMSO
Experimental: FIGS. 2A-E. Atoh1 is degraded by the ubiquitin-proteasome pathway. […] HEK cells were transfected with FLAG-Atoh1 plasmid (1 ug/ml) for 24 hours, and incubated with either DMSO or MG132 (10 uM) for 3 hours and immunoprecipitated using FLAG (Atoh1) or beta-actin (loading control) antibodies. (B) FLAG-HA-Atoh1 293T cells were treated with cycloheximide (100 ug/ml) and MG132 (10 uM) at the indicated times and immunoprecipitated with FLAG (Atoh1) or beta-actin (loading control) antibodies. Time of treatment is indicated. (C) Half-lives based on densitometry from 3 experiments are shown. The ratio of Atoh1 to β-actin was plotted after normalization. Error bars indicate SEM. (D) & (E). Atoh1 is polyubiquitylated and degraded by the ubiquitin-proteasome pathway. FLAG-HA-Atoh1 293T cells were treated with either DMSO or MG132 (10 uM) for 6 hours. Lysates were immunoprecipitated with anti-FLAG antibody and subjected to immunoblotting with a ubiquitin antibody. FLAG was used to assess immunoprecipitation.
To determine if the ubiquitin-proteasome pathway was involved in Atoh1 degradation, HEK cells were transfected with FLAG-Atoh1 (1 μg/ml) using Lipofectamine 2000 (Invitrogen) for […] and either DMSO or MG132 (10 μM) for […]. Transfected cells were lysed in Pierce IP Lysis Buffer (Thermo) containing 1× complete protease inhibitors and 1×PhosSTOP phosphatase inhibitors (Roche). […]

Atoh1 [4] = assay: Cycloheximide chase of Atoh1 with proteasome inhibitor or Huwe1 shRNA in FLAG-HA-Atoh1 293T cells; details: cycloheximide 100 ug/ml plus MG132 10 uM
Experimental: as §1, with “(E).” for “(E). Atoh1 is polyubiquitylated and degraded by the ubiquitin-proteasome pathway. FLAG-HA-Atoh1 293T cells were treated with either DMSO or MG132 (10 uM) for 6 hours. Lysates were immunoprecipitated with anti-FLAG antibody and subjected to immunoblotting with a ubiquitin antibody. FLAG was used to assess immunoprecipitation.”
FIGS. 9A-D. Huwe1 plasmid increased and Huwe1 siRNA inhibited degradation of Atoh1. […] Quantification of Atoh1, Huwe1 and a loading control (HSC70) were performed by Western blotting and densitometry. […] Atoh1 (FLAG) and Huwe1 were analyzed by Western blotting and densitometry normalized to loading controls in three experiments. […]
HEK cells were transfected with either FLAG-Atoh1 (wild-type), or indicated mutant FLAG-Atoh1 plasmids (1 μg/ml) using Lipofectamine 2000 (3 μl per 1 μg of cDNA, Invitrogen). […] Protein bands were quantified by densitometry. The half-lives of indicated proteins were calculated using GraphPad Prism 6 software and a one-phase exponential-decay model.

FLAG-HA-Atoh1 293T cells = assay: Cycloheximide chase, half-life of Atoh1 by Western blotting and densitometry
Experimental: FIGS. 1A-B. Atoh1 is a short-lived protein. (A) FLAG-HA-Atoh1 293T cells were treated with cycloheximide (100 ug/ml) and harvested at the indicated times. Lysates were processed for Western blotting with FLAG antibody (Atoh1) or β-actin antibody (loading control). Labels indicate the time of chase. (B) Protein half-lives based on densitometry. The ratio of Atoh1 to β-actin was plotted after normalizing to the initial ratio set to 100. Error bars indicate SEM.
HEK cells were transfected with either FLAG-Atoh1 (wild-type), or indicated mutant FLAG-Atoh1 plasmids (1 μg/ml) using Lipofectamine 2000 (3 μl per 1 μg of cDNA, Invitrogen). Forty-eight hours after transfection, 100 μg/ml cycloheximide (Sigma) was added to block protein synthesis. Cells were harvested at 0, 30, 60, 120, and 240 minutes. Equal amounts of protein from each treatment were taken for Western blotting. Protein bands were quantified by densitometry. The half-lives of indicated proteins were calculated using GraphPad Prism 6 software and a one-phase exponential-decay model.
To determine the half-life of Atoh1, we used cycloheximide to prevent new protein synthesis and followed the time course of disappearance of previously synthesized Atoh1 by Western blotting during a chase period. We transfected 293T cells with FLAG-HA-Atoh1 and treated with cycloheximide at 48 hours after transfection.

Molecule	Atoh1 level in organ of Corti (Atoh1 [1])	level of Atoh1 protein (Atoh1 [2]; FLAG-HA-Atoh1 293T cells, reprobed blot and input protein)	density of high molecular weight poly-ubiquitin forms of Atoh1 (Atoh1 [2]; FLAG-HA-Atoh1 cells, vs DMSO)	level of Atoh1 (Atoh1 [3])	half-life of Atoh1 (Atoh1 [4])	turnover rate of Atoh1 (FLAG-HA-Atoh1 293T cells)
CC(C)C[C@@H](C=O)NC(=O)[C@H](CC(C)C)NC(=O)[C@H](CC(C)C)NC(=O)OCc1ccccc1 [MG132] (Cbz-Leu-Leu-Leu-aldehyde)	increased; also recorded: higher	increased the level of protein	increased the density	significantly increased; also recorded: stabilized Atoh1 expression	extended the half-life	–
Atoh1: wild-type Atoh1 protein, FLAG- or FLAG-HA-tagged, expressed in HEK/293T cells (protein, left off: large carriers, wild-type Atoh1 protein, FLAG- or FLAG-HA-tagged, expressed in HEK/293T cells) MSRLLHAEEWAEVKELGDHHRQPQPHHLPQPPPPPQPPATLQAREHPVYPPELSLLDSTDPRAWLAPTLQGICTARAAQYLLHSPELGASEAAAPRDEVDGRGELVRRSSGGASSSKSPGPVKVREQLCKLKGGVVVDELGCSRQRAPSSKQVNGVQKQRRLAANARERRRMHGLNHAFDQLRNVIPSFNNDKKLSKYETLQMAQIYINALSELLQTPSGGEQPPPPPASCKSDHHHLRTAASYEGGAGNATAAGAQQASGGSQRPTPPGSCRTRFSAPASAGGYSVQLDALHFSTFEDSALTAMMAQKNLSPSLPGSILQPVQEENSKTSPRSHRSDGEFSPHSHYSDSDEAS	–	–	–	–	–	less than 1 hour
